What was measured:
Test in all cases: relative viability (nuclei count vs DMSO), 5 days (fraction); higher = more cells survive
[1] = compound: CC1=C(C(=NN1)C)CC2=C(C3=C(S2)N(C(=O)N(C3=O)C)CC(C)C)C(=O)N4C[C@@H](CO4)O + COc1cccc2cc(-c3nc([C@H]4CC[C@H](C(=O)O)CC4)n4ncnc(N)c34)[nH]c12 [OSI-027] (partner 0.5 µM)
In short: (§1)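 Nuclei were stained with Hoechst during a one-step fixation (final 0.05% Triton X-100, 1% formaldehyde, 1 ug/ml Hoechst) carried out 5 days after dosing, then counted on 4× images. The cells, lung cancer lines in 1536-well plates, had been dosed by pin tool the day after seeding with one drug alone or a fixed anchor-drug dose plus five library-drug doses (not always all listed) in √10 steps. Relative viability is the nuclei count in treated wells divided by that in vehicle wells, and each value is the median of duplicate plates.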

[2] = compound: CC1=C(C(=NN1)C)CC2=C(C3=C(S2)N(C(=O)N(C3=O)C)CC(C)C)C(=O)N4C[C@@H](CO4)O + NC(=O)Nc1cc(-c2cccc(F)c2)sc1C(=O)N[C@H]1CCCNC1 [AZD7762] (partner 0.2 µM)
In short: as §1

[3] = compound: CC1=C(C(=NN1)C)CC2=C(C3=C(S2)N(C(=O)N(C3=O)C)CC(C)C)C(=O)N4C[C@@H](CO4)O + Cc1cc(Nc2cc(N3CCN(C)CC3)nc(Sc3ccc(NC(=O)C4CC4)cc3)n2)n[nH]1 [Tozasertib] (partner 0.1 µM)
In short: as §1

IDH-C35 + Alpelisib = compound: Cc1ccccc1C(C(=O)NC1CCCCC1)N(C(=O)Cn1ccnc1C)c1cccc(F)c1 [IDH-C35] + Cc1nc(NC(=O)N2CCC[C@H]2C(N)=O)sc1-c1ccnc(C(C)(C)C(F)(F)F)c1 [Alpelisib] (partner 2 µM)
In short: as §1

Cell Line | relative viability ([1]; first compound 0.0025 µM) | relative viability ([1]; first compound 0.007906 µM) | relative viability ([1]; first compound 0.025 µM) | relative viability ([1]; first compound 0.07906 µM) | relative viability ([1]; first compound 0.25 µM) | relative viability ([2]; first compound 0.0025 µM) | relative viability ([2]; first compound 0.007906 µM) | relative viability ([2]; first compound 0.025 µM) | relative viability ([2]; first compound 0.07906 µM) | relative viability ([2]; first compound 0.25 µM) | relative viability ([3]; first compound 0.0025 µM) | relative viability ([3]; first compound 0.007906 µM) | relative viability ([3]; first compound 0.025 µM) | relative viability ([3]; first compound 0.07906 µM) | relative viability ([3]; first compound 0.25 µM) | relative viability (IDH-C35 + Alpelisib; first compound 0.08 µM) | relative viability (IDH-C35 + Alpelisib; first compound 0.253 µM) | relative viability (IDH-C35 + Alpelisib; first compound 0.8 µM) | relative viability (IDH-C35 + Alpelisib; first compound 2.53 µM) | relative viability (IDH-C35 + Alpelisib; first compound 8 µM)
NCI-H2342 | 0.588 | 0.584 | 0.624 | 0.618 | 0.587 | 0.414 | 0.505 | 0.345 | 0.373 | 0.388 | 0.599 | 0.421 | 0.481 | 0.558 | 0.552 |  |  |  |  | 
SK-MES-1 | 0.664 | 0.68 | 0.634 | 0.66 | 0.694 |  |  |  |  |  | 0.904 | 0.983 | 0.872 | 1.05 | 0.908 | 1.02 | 1.01 | 0.873 | 0.887 | 0.833
HCC-366 | 0.937 | 1.16 | 1.18 | 1.09 | 0.933 | 0.271 | 0.361 | 0.297 | 0.277 | 0.378 | 0.491 | 0.11 | 0.153 | 0.114 | 0.109 | 0.476 | 0.311 | 0.387 | 0.403 | 0.352
201T | 0.843 | 0.79 | 0.72 | 0.642 | 0.71 | 0.67 | 0.673 | 0.573 | 0.586 | 0.677 | 1.05 | 0.92 | 0.915 | 0.904 | 1.03 | 0.989 | 0.998 | 0.95 | 0.968 | 1.02
HCC-827 | 0.812 | 0.793 | 0.756 | 0.759 | 0.952 | 0.233 | 0.199 | 0.196 | 0.196 | 0.2 | 0.475 | 0.437 | 0.393 | 0.428 | 0.397 | 0.917 | 0.897 | 1.04 | 1 | 0.75
NCI-H647 | 0.727 | 0.805 | 0.805 | 0.769 | 0.569 | 0.515 | 0.418 | 0.366 | 0.653 | 0.45 | 0.2 | 0.265 | 0.269 | 0.189 | 0.322 | 1.14 | 1.23 | 1.14 | 1.12 | 0.917
NCI-H2023 | 0.465 | 0.423 | 0.481 | 0.473 | 0.393 |  |  |  |  |  | 0.332 | 0.362 | 0.356 | 0.412 | 0.327 | 0.598 | 0.581 | 0.579 | 0.492 | 0.611
NCI-H520 | 0.276 | 0.281 | 0.27 | 0.277 | 0.193 |  |  |  |  |  | 0.406 | 0.433 | 0.432 | 0.445 | 0.407 | 0.71 | 0.808 | 0.891 | 0.845 | 0.954
RERF-LC-KJ | 0.589 | 0.519 | 0.598 | 0.681 | 0.627 | 1.01 | 1.16 | 0.888 | 1.1 | 1.01 | 0.461 | 0.529 | 0.469 | 0.485 | 0.492 | 0.824 | 0.827 | 0.853 | 0.73 | 0.886
A-427 | 0.444 | 0.569 | 0.425 | 0.549 | 0.477 | 0.73 | 0.691 | 0.752 | 0.847 | 0.677 | 0.189 | 0.188 | 0.215 | 0.227 | 0.237 | 1.06 | 1.04 | 1.04 | 1.07 | 1.1
NCI-H441 | 0.601 | 0.634 | 0.707 | 0.665 | 0.677 | 1.44 | 1.23 | 1.12 | 1.3 | 1.16 | 0.657 | 0.647 | 0.575 | 0.664 | 0.623 | 0.649 |  | 0.688 | 0.684 | 0.754
NCI-H1703 |  |  |  |  |  | 0.113 | 0.144 | 0.112 | 0.113 | 0.136 |  |  |  |  |  | 0.379 | 0.372 | 0.405 | 0.343 | 0.309
NCI-H1792 | 0.739 | 0.816 | 0.717 | 0.645 | 0.652 | 0.607 | 0.727 | 0.512 | 0.564 | 0.578 |  |  |  |  |  | 0.655 | 0.727 | 0.669 | 0.741 | 0.827
Calu-6 |  |  |  |  |  |  |  |  |  |  |  |  |  |  |  | 1 | 0.973 | 0.955 | 0.97 | 1.05
SK-LU-1 | 0.311 | 0.227 | 0.217 | 0.246 | 0.229 |  |  |  |  |  | 0.3 | 0.266 | 0.251 | 0.256 | 0.278 | 0.993 | 0.918 | 1.29 | 1.11 | 0.934
PC-3 [JPC-3] | 0.763 | 0.679 | 0.755 | 0.785 | 0.859 | 0.872 | 0.76 | 0.69 | 0.976 | 0.806 | 0.932 | 0.74 | 0.867 | 0.932 | 1.01 | 1.08 | 1.04 | 0.988 | 1.08 | 1.04
EMC-BAC-2 | 0.416 | 0.403 | 0.394 | 0.43 | 0.416 | 1.21 | 1.2 | 1.07 | 1.19 | 1.01 | 0.268 | 0.296 | 0.272 | 0.3 | 0.317 | 0.79 | 0.665 | 0.739 | 0.756 | 0.709
LK-2 | 0.201 | 0.184 | 0.204 | 0.189 | 0.228 | 0.304 | 0.252 | 0.298 | 0.129 | 0.134 | 0.19 | 0.224 | 0.175 | 0.198 | 0.182 | 1.11 | 1.05 | 0.991 | 1.1 | 1.04

From the supplement of paper PMC10307832
